This passage reports inhibition and IC50 results from ChEMBL document CHEMBL4184305, “Inhibition of histone lysine methyltransferases G9a and GLP by ejection of structural Zn(II)” (Bioorg Med Chem Lett, 2018).

Activity calls are given as the source filed them. No cut-off for these calls is given here.

What is called inhibition is the change of the read-out against control, counted positive when it falls. By IC50 is commonly meant the concentration needed to halve the response being measured.

Test [1] has as its target T1, Histone-lysine N-methyltransferase EHMT1 (Homo sapiens) (UniProt Q9H9B1).
T1 sequence (whole entry): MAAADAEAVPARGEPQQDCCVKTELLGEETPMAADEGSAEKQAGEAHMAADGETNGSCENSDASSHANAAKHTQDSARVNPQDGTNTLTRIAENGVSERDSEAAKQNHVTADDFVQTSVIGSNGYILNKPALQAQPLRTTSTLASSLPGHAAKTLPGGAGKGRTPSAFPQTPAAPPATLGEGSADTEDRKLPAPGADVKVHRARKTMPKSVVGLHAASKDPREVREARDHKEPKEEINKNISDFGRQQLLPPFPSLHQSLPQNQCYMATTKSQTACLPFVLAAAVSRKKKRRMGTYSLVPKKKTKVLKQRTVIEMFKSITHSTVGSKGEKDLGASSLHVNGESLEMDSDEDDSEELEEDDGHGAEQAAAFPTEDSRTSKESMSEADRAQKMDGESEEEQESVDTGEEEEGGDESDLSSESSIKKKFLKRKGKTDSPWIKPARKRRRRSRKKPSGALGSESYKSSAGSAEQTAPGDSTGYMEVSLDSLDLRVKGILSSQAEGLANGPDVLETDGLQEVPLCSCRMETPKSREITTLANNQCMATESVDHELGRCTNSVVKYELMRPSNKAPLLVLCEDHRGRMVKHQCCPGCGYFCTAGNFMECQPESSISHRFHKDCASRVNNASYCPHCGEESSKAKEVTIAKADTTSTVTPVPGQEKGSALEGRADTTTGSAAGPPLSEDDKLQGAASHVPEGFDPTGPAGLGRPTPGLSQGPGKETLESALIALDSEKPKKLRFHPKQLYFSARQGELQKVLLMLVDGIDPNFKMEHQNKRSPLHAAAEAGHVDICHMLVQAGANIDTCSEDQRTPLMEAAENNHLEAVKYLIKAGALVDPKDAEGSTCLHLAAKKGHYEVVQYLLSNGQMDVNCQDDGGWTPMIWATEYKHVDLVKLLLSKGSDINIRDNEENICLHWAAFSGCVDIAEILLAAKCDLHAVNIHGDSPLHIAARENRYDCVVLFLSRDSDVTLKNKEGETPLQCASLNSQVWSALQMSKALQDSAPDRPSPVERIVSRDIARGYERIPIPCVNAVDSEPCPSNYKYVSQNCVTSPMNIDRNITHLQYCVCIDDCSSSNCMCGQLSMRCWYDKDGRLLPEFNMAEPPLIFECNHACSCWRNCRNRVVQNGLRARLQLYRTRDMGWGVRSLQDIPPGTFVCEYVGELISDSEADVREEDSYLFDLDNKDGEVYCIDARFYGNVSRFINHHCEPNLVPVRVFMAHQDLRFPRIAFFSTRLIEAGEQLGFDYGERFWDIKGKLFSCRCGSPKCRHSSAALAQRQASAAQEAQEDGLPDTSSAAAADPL
The test is described as follows: Inhibition of wild type recombinant human histone lysine methyltransferase GLP (951 to 1235 residues) expressed in Escherichia coli Rosetta BL21 DE3 PlysS at 10 uM using ARTKQTARKSTGGKA as substrate preincubated for 5 mins followed by substrate/SAM addition measured after 60 mins by MALDI-TOF MS analysis.

The target in test [2] is T1, Histone-lysine N-methyltransferase EHMT1 (Homo sapiens). The experiment in a line: Inhibition of wild type recombinant human histone lysine methyltransferase GLP (951 to 1235 residues) expressed in Escherichia coli Rosetta BL21 DE3 PlysS at 100 uM using ARTKQTARKSTGGKA as substrate preincubated for 5 mins followed by substrate/SAM addition measured after 60 mins by MALDI-TOF MS analysis.

Test [3] addresses T2, Histone-lysine N-methyltransferase EHMT1 (Homo sapiens, UniProt Q9H9B1).
T2 sequence (Q9H9B1 whole entry): T1 sequence (whole entry)
The experiment in a line: Inhibition of wild type recombinant human histone lysine methyltransferase GLP (951 to 1235 residues) expressed in Escherichia coli Rosetta BL21 DE3 PlysS using ARTKQTARKSTGGKA as substrate preincubated for 5 mins followed by substrate/SAM addition measured after 60 mins by MALDI-TOF MS analysis.

The target in test [4] is T1, Histone-lysine N-methyltransferase EHMT1 (Homo sapiens). The test is described as follows: Inhibition of wild type recombinant human histone lysine methyltransferase GLP (951 to 1235 residues) expressed in Escherichia coli Rosetta BL21 DE3 PlysS assessed as zinc ions ejection from Cys4-Zn finger at >25 uM after 1 hr by circular dichroism analysis.
Test [5] shares this target. The test is described as follows: Inhibition of wild type recombinant human histone lysine methyltransferase GLP (951 to 1235 residues) expressed in Escherichia coli Rosetta BL21 DE3 PlysS assessed as zinc ions ejection from 3 types of Cys9-type Zn fingers at >25 uM after 1 hr by circular dichroism analysis.

In the case of `CCN(CC)C(=S)SSC(=S)N(CC)CC`, the inhibition entry in test [1] is “inactive”. The inhibition in test [2] is more than 50%. For the same molecule, the IC50 in test [3] amounted to 1600 nM.
For the molecule `O=c1c2ccccc2[se]n1-c1ccccc1` [EBSELEN], the inhibition result in test [1] was “inactive”. Besides, the inhibition in test [2] is more than 50%. For the same molecule, the IC50 in test [3] is 730 nM. For the same molecule, the inhibition entry in test [4] and in test [5] was “Active” each time.
